Source: ChEMBL document CHEMBL1147219, “Hyperatomarin, an antibacterial prenylated phloroglucinol from Hypericumatomarium ssp. degenii” (2003)
In brackets after ≈: the same amount, converted by molar mass.

Experiments:
Format in all cases: functional
Bacillus subtilis = assay: Antibacterial activity against Bacillus subtilis ATCC 6633 after 24 hrs by agar dilution method; settings: ATCC 6633, 24 h
Staphylococcus aureus = assay: Antibacterial activity against Staphylococcus aureus ATCC 25923 after 24 hrs by agar dilution method; settings: ATCC 25923, 24 h
Micrococcus luteus = assay: Antibacterial activity against Micrococcus luteus ATCC 4698 after 24 hrs by agar dilution method; settings: ATCC 4698, 24 h
Bacillus = assay: Antibacterial activity against Bacillus IP 5832 after 24 hrs by agar dilution method

| MIC (Bacillus subtilis) [µg/mL] | MIC (Staphylococcus aureus) [µg/mL] | MIC (Micrococcus luteus) [µg/mL] | MIC (Bacillus) [µg/mL] | Compound |
| --- | --- | --- | --- | --- |
| 0.39 (≈ 0.531 µM) | 0.2 (≈ 0.273 µM) | 0.2 (≈ 0.273 µM) | 0.39 (≈ 0.531 µM) | CC[C@H]1OC(=O)[C@H](C)[C@@H](O[C@H]2C[C@@](C)(OC)[C@@H](O)[C@H](C)O2)[C@H](C)[C@@H](O[C@@H]2O[C@H](C)C[C@H](N(C)C)[C@H]2O)[C@](C)(O)C[C@@H](C)C(=O)[C@H](C)[C@@H](O)[C@]1(C)O [ERYTHROMYCIN] |
| 3.12 (≈ 7.79 µM) | 1.56 (≈ 3.89 µM) | 1.56 (≈ 3.89 µM) | 1.56 (≈ 3.89 µM) | CC(C)=CCC[C@@]1(C)[C@H](CC=C(C)C)C[C@@H]2C(=O)C(C(=O)C(C)C)=C(O)[C@H]1C2=O [HYPERATOMARIN] |
